From article PMC5344979, “Stabilizing short-lived Schiff base derivatives of 5-aminouracils that activate mucosal-associated invariant T cells” (Nature Communications, 2017) come the findings set out here.

Data set [1] has as its system human MAIT TCR-transduced Jurkat T cells and MR1-overexpressed C1R cells. The experiment in a line: MAIT reporter cell activation assay (surface CD69 on Jurkat.MAIT). The following applies: Jurkat.MAIT + C1R.MR1, 16 h. It counts as cell-based. Here is the method:
MAIT activation was evaluated using a well established reporter assay[17] by co-culturing two cell lines (human MAIT TCR-transduced Jurkat T cells and MR1-overexpressed C1R cells, Fig. 3g).
MAIT reporter cell activation assays and MR1 upregulation assays were performed by slight modifications to reported methods. Briefly, Jurkat cells transduced with genes encoding a MAIT TCR comprising the TRAV1-2-TRAJ33 invariant α chain, and a TRBV6-1 β chain, were tested for activation by co-incubation with compounds and C1R antigen-presenting cells expressing MR1 (CIR.MR1) for 16 h or over a time course as indicated. Cells were subsequently stained with PE-Cy7-conjugated anti-CD3 (UCHT1, eBioscience, 1:300), and APC-conjugated anti-CD69 (BD, 1:25) antibodies as well as biotinylated anti-MR1 mAb 26.5, a gift from Dr Ted Hansen, Washington University School of Medicine, St Louis, MO[53], followed by Streptavidin-PE (BD, 1:1,000), before analysis by on a FACS CantoII (BD) flow cytometer. Activation of Jurkat.MAIT was measured by an increase in surface CD69 expression. MR1 expression was detected on gated C1R.MR1 cells in the same assay. […]
MAIT reporter cell activation assay
Conducted as described previously16. Jurkat cells transduced with genes encoding a MAIT TCR comprising the TRAV1-2-TRAJ33 invariant α chain and a TRBV6-1 β chain were co-incubated with C1R antigen presenting cells expressing MR1 (CIR.MR1) in the presence of graded amounts of ligands for 16 h. Cells were subsequently stained with PE-Cy7-conjugated anti-CD3 (eBioscience), and APC-conjugated anti-CD69 (BD Biosciences) antibodies, followed by Streptavidin-PE (BD Biosciences), before analysis by flow cytometry. Activation of Jurkat.MAIT cells was measured by an increase in surface CD69 expression.

The nature of data set [2]: Stability in aqueous media (LCMS). As to conditions: for t1/2: C0 0.065 mM.
Method: (§1) Stock solutions of either crude (3a, 3b and 9) or purified compounds (3c, 10 and 11) in DMSO-d6, with a known concentration calibrated using the PULCON NMR technique[52], were dissolved in aqueous buffers, such as TBS buffer (10 mM Tris, 150 mM NaCl, pH 8.0), PBS (pH 7.4), MilliQ water (pH 6.8), or aqueous ammonium acetate buffer (20 mM, pH 5.4, 150 mM NaCl). Consumption of 3 was monitored by LCMS.
(§2) Stability in aqueous media. TBS buffer (10 mM Tris, 150 mM NaCl,
(§3) pH 8.0), PBS (pH 7.4), MilliQ water (pH 6.8), or ammonium acetate buffer (20 mM, 150 mM
(§4) The initial concentration was quantified by measuring the LCMS UV chromatogram
(§5) absorbance peak area at 365 nm. Data shown as % of initial concentration.
A further data set in a line: physchem. The following applies: for half-life: PBS buffer.
A further data set in a line: Stability in DMSO (NMR). In kind it is physicochemical. As to conditions: for days at room temperature.
The subject of a further data set is MR1 on C1R.MR1 cells. The experiment in a line: Upregulation of MR1 surface expression. In kind it is cell-based, human. As to conditions: 24 h time course, mAb 26.5. Here is the method:
MAIT reporter cell activation assays and MR1 upregulation assays were performed by slight modifications to reported methods. Briefly, Jurkat cells transduced with genes encoding a MAIT TCR comprising the TRAV1-2-TRAJ33 invariant α chain, and a TRBV6-1 β chain, were tested for activation by co-incubation with compounds and C1R antigen-presenting cells expressing MR1 (CIR.MR1) for 16 h or over a time course as indicated. Cells were subsequently stained with PE-Cy7-conjugated anti-CD3 (UCHT1, eBioscience, 1:300), and APC-conjugated anti-CD69 (BD, 1:25) antibodies as well as biotinylated anti-MR1 mAb 26.5, a gift from Dr Ted Hansen, Washington University School of Medicine, St Louis, MO[53], followed by Streptavidin-PE (BD, 1:1,000), before analysis by on a FACS CantoII (BD) flow cytometer. Activation of Jurkat.MAIT was measured by an increase in surface CD69 expression. MR1 expression was detected on gated C1R.MR1 cells in the same assay.

For another data set, the target named is T1, human MR1 (Homo sapiens, UniProt Q95460).
T1 construct: Genes encoding soluble human MR1 or human β2m were expressed; made in house
T1 sequence (P61769 21-119): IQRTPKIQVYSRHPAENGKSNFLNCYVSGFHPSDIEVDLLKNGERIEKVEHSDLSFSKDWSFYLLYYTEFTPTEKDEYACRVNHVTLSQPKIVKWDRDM
T1 sequence (Q95460 23-302): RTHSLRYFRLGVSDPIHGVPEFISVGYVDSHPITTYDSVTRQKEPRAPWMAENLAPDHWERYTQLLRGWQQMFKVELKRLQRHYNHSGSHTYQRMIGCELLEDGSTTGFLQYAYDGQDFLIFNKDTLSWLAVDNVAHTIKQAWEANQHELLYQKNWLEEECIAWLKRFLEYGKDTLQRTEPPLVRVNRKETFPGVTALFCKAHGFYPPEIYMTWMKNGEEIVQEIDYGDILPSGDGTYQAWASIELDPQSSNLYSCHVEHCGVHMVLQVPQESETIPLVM
The data set can be described thus: MR1 refolding with ligand. In kind it is binding. As to conditions: in the presence of the compound. Here is the method: E. coli were pelleted and resuspended in a buffer containing 50 mM Tris, 25% (w/v) sucrose, 1 mM EDTA, 10 mM DTT pH 8.0.

For a further data set, the system named is human MAIT cells. The experiment in a line: In vitro PBMC stimulation assay (intracellular cytokine staining). In kind it is cell-based. The following applies: human PBMCs alone or with THP-1 cells. The procedure:
To assess the ability of 11 to activate MAIT cells, human PBMCs were cultured alone, or with THP-1 cells, in the presence of the compounds, and cytokine production assessed by intracellular cytokine staining.
Stimulation of PBMCs was performed essentially as previously described. Briefly, 5 × 10^5 PBMCs were cultured, alone or with 1 × 10^5 THP-1 cells, overnight with or without compounds 3c or 11 at a range of doses or with PMA and ionomycin (5 ng ml^−1 and 1 μg ml^−1 final concentrations, respectively) as a positive control. BD GolgiStop (1:1,000 dilution) was added after the first hour of stimulation. Cells were stained for surface markers using human MR1-5-OP-RU tetramer (PE, 1:300), and monoclonal antibodies to CD3 (PE-CF594, UCHT1, BD Horizon, 1:50), CD161 (PE-Cy7, HP-3G10, Biolegend, 1:50) for 30 min on ice and fixed in 1% paraformaldehyde before cytokine production by MAIT cells was detected by intracellular cytokine staining with monoclonal antibodies to TNF (APC, MAb11, eBioscience, 1:50) and IFNγ (AlexaFluor700, B27, BD 1:50) in the presence of 0.3% saponin. Data was acquired on a BD LSR-Fortessa and analysed using FlowJo software (Tree Star).

The mark [3] stands for this setting: PBS pH 7.4, 37 °C, DMSO stock diluted into buffer.

Method for physchem: as §1, §2, §3, §4, §5

The term EC50 denotes the midpoint of the concentration-response curve. Take `CC(=O)C(C)=Nc1c(NCC(O)C(O)C(O)CO)[nH]c(=O)[nH]c1=O` [3a, 5-(1-methyl-2-oxopropylideneamino)-6-D-ribitylaminouracil]: the EC50 in data set [1] was 24 nM. Besides, in data set [2] (pH 8.0, 15 °C), the “time to complete degradation” value is less than 5 min.

A word on the half-life: it is the time needed for the level to fall by half in the phase considered. Regarding `O=CC=Nc1c(NCC(O)C(O)C(O)CO)[nH]c(=O)[nH]c1=O` [3b, 5-(2-oxoethylideneamino)-6-D-ribitylaminouracil], the EC50 in data set [1] was found to be 0.51 nM. The same compound showed a half-life at 0.065 mM in the data set “physchem” (TBS buffer, pH 8) of 0.3 h.

`CC(=O)C=Nc1c(NCC(O)C(O)C(O)CO)[nH]c(=O)[nH]c1=O` [3c, 5-(2-oxopropylideneamino)-6-D-ribitylaminouracil]: the “stable in DMSO solution” value in “Stability in DMSO (NMR)” was more than 95%. Besides, the “time at which MR1 upregulation peaked” value in the data set with MR1 on C1R.MR1 cells is reported as 4 h. In “physchem” (MilliQ water, pH 6.8), this compound displayed a half-life at 1 mM of 7.68 h. In addition, the half-life in “physchem” (pH 7.4) is 0.2 h; in “physchem” (pH 8), 14 h; in data set [2] (pH 6.8 (MilliQ water), 15 °C, 0.065 mM), 12 h. Moreover, the half-life at 0.065 mM in “physchem” (TBS buffer, pH 8) turned out to be 14.4 h. The same compound came in with a half-life at 0.25 mM in “physchem” (TBS buffer, pH 8) of 14.9 h. In “physchem” (TBS buffer, pH 8), this compound gave a half-life at 10 mM of 8.63 h. In addition, the t1/2 in data set [2] (PBS pH 7.4, 15 °C) came to 5.7 h; in data set [2] (setting [3]), 1.47 h; in data set [2] (pH 5.4 ammonium acetate buffer, 15 °C) it was 0.733 h; in data set [2] (pH 5.4 ammonium acetate buffer, 37 °C) it was 0.217 h; in data set [2] (pH 6.8 MilliQ water, 15 °C), 12.3 h; in data set [2] (pH 6.8 MilliQ water, 37 °C) it was 2.18 h.

On to `Cc1cnc2c(=O)[nH]c(=O)nc-2n1C[C@H](O)[C@H](O)[C@H](O)CO` [4c], for which the EC50 in data set [1] was more than 100 nM.

Turning to `Nc1c(NC[C@H](O)[C@H](O)[C@H](O)CO)[nH]c(=O)[nH]c1=O` [compound 1, 5-amino-6-D-ribitylaminouracil, reference compound], the EC50 in data set [1] was determined as 18 nM.

Take `CC(=O)/C=N/c1c(N(C)C[C@H](O)[C@H](O)[C@H](O)CO)[nH]c(=O)[nH]c1=O` [compound 9]: the EC50 in data set [1] is 14 ± 14 nM. Further, the t1/2 worked out at 1.92 h in data set [2] (PBS pH 7.4, 15 °C) and 0.65 h in data set [2] (setting [3]).

In the case of `CC(=O)/C=C/c1c(N(C)C[C@H](O)[C@H](O)[C@H](O)CO)[nH]c(=O)[nH]c1=O` [compound 10], the 50% effective concentration (EC50) in data set [1] was more than 10000 nM. Also, the t1/2 in data set [2] (PBS pH 7.4, 15 °C) is 10.2 h; in data set [2] (setting [3]) it was 2.25 h.

On to `CC(=O)/C=C/c1c(CC[C@H](O)[C@H](O)[C@H](O)CO)[nH]c(=O)[nH]c1=O` [compound 11], for which the MR1 surface expression result with MR1 on C1R.MR1 cells is given as “continued to increase over 24 h”. For the same compound, on human MR1, the “refolding of human MR1” value was “readily refolded”. Moreover, the “cytokine production by human MAIT cells” value in the data set on human MAIT cells is “stimulated the production of interferon-γ (IFNγ) and tumour necrosis factor (TNF)”. Besides, the aqueous stability result in data set [2] (PBS buffer pH 7.4, 37 °C, 5 days) is listed as “no degradation observed over 5 days”.
